{"source": "patent US9522163B2", "about": "“Methods of treating hepatitis” (priority 2002, dated 2016)", "key": {"[1]": {"tested_on": "LPS/D-Gal-induced liver injury", "experiment": "LPS/D-Gal acute hepatitis model", "format": "in vivo, mice", "description": "Results discussed above were confirmed using lipopolysaccharide (LPS, also referred to as endotoxin) in place of TNF. […] In mice pretreated with 250 ppm CO, the increase in ALT was reduced by >75%, to 250+/−75 IU/ml. To further characterize the effects observed with CO in this model, serum interleukin-6 was measured, and found to be reduced 65% in animals breathing CO vs air-breathing controls (data not shown). […] Few changes in the markers of inflammation (edema, hemorrhage, neutrophil infiltration) were observed. Architecture was maintained and appeared grossly similar to untreated and CO (in the absence of LPS/D-Gal)-treated mice. Overall, the use of LPS/D-Gal to induce acute hepatitis paralleled and confirmed data generated using TNF/D-Gal treatment."}, "[2]": {"tested_on": "iNOS", "experiment": "iNOS protein immunoblot in hepatocytes", "format": "cell-based", "details": "TNF-α/ActD 6-8 hr in presence of CO 250 ppm vs TNF-α alone", "description": "Western blot analysis was performed on primary hepatocytes in culture or from liver homogenates with antibodies to iNOS (Transduction Laboratories, Lexington, Ky.; 1:1000), HO-1 (Calbiochem; 1:2000), or β-actin (Sigma Chemical; 1:5000). Thirty μg protein in cell culture experiments or 100 μg protein from liver homogenates was loaded per well for SDS-PAGE.\nTo generate the data in FIG. 8, expression of iNOS protein was evaluated using immunoblotting techniques. Briefly, cell extracts from hepatocytes were treated with TNF-α/ActD for 6-8 hr in the presence and absence of CO (250 ppm). Control cells received air or CO alone."}, "[3]": {"tested_on": "hemorrhagic shock liver injury", "experiment": "Murine model of hemorrhagic shock, liver injury", "format": "in vivo", "details": "inhaled CO during resuscitation after 2.5 hour shock phase; at 24 hr"}, "[4]": {"tested_on": "TNF-α/D-gal-induced liver injury", "description": "Male C57BL/6J ([…], Bar Harbor, Me.), 8-12-wk-old inos^−/− mice and wild type littermates (bred/maintained at the University of Pittsburgh) were used for in vivo experiments.\n10 mg/kg subcutaneously (s.c.), Alexis Biochem., San Diego, Calif.) or cobalt protoporphyrin (CoPP, 5 mg/kg, intraperitoneally (i.p.), Frontier Scientific, Logan, Utah). […] Where indicated, acetaminophen (Sigma Chem. Co.; St Louis, Mo.) was administered (500 mg/kg, i.p.).\nA CO analyzer (Interscan, Chatsworth, Calif.) was used to measure CO levels continuously in the chamber. CO concentrations were maintained at 250 ppm at all times. Mice were placed in the exposure chamber as required.\nWhether HO-1 is protective against acute hepatic failure was investigated. Cobalt protoporphyrin (5 mg/kg, i.p.) was administered to male C57BL/6J mice. Twenty-four hours later, TNF-α/D-gal (0.3 μg/8 mg/mouse, i.p., respectively) was administered to the mice. Serum alanine aminotransferase (ALT) levels in the mice were measured 8 hours after administration of TNF-α/D-gal.\nAfter receiving TNF-α/D-gal, mice were returned to the CO exposure chamber and their serum was analyzed for ALT levels 6-8 hr later.\nTo generate the data presented in FIGS. 11A-11H, liver samples from mice treated with TNF-α/D-gal in the presence and absence of CO (250 ppm) for 8 hr were sectioned and stained for hematoxylin & eosin (H&E), activated caspase 3 (as indicated by an increase in red intensity), and for TUNEL positive cells (as demarcated by the increased green cellular staining; a marker of cell death). Nuclei stained blue.\nL-NIL was administered 2 hr prior to CO. CO-treated animals were then pre-treated (250 ppm) for 1 hr prior to TNF-α/D-gal.\nVP was selectively designed to deliver NO directly to the liver. One hour after the initial VP dose, the animals were exposed to CO for 1 hr prior to administration of TNF-α/D-gal (see above). Serum ALT levels were determined 6-8 hr later.\nThese mice and inos^−/− mice were then administered CoPP. L-NIL was maintained in the water throughout the experiment. Control and inos^−/− mice received normal drinking water. Twenty-four hr after administration of CoPP, TNF-α/D-gal was administered and serum ALT determined 6-8 hr later."}, "[5]": {"details": "pretreated with 250 ppm CO, 8 hours after LPS/D-Gal"}, "[6]": {"details": "CO 250 ppm for 8 hr, TNF-α/D-gal"}}, "data": [{"smiles": "[C-]#[O+]", "note": "[CO, carbon monoxide]", "values": [{"measurement": "Liver histopathology", "setting": "[1]; CO and LPS/D-Gal", "value": "protected to the same extent"}, {"measurement": "Serum interleukin-6 reduced vs air-breathing controls", "setting": "[1]; animals breathing CO, LPS/D-Gal, data not shown", "value": 65, "unit": "%"}, {"measurement": "Reduction of the increase in serum ALT", "setting": "[1]; [5]", "value": "> 75", "unit": "%"}, {"measurement": "Serum ALT", "setting": "[1]; [5]", "value": "250+/−75 IU/ml"}, {"measurement": "iNOS protein", "setting": "[2]", "value": "markedly increased"}, {"measurement": "Reduction in serum ALT", "setting": "[3]", "value": "> 65", "unit": "%"}, {"measurement": "TNF-α/D-gal-induced liver damage by H&E staining", "setting": "[4]; CO 250 ppm for 8 hr", "value": "markedly reduced"}, {"measurement": "Staining of activated caspase-3 in liver", "setting": "[4]; [6]", "value": "less staining"}, {"measurement": "TUNEL positive cells in liver", "setting": "[4]; [6]", "value": "fewer TUNEL positive cells"}, {"measurement": "Serum ALT lower than in air-exposed mice", "setting": "[4]; CO 250 ppm, 1 hr pre-treatment and continued, ALT 6-8 hr after TNF-α/D-gal", "value": 74, "unit": "%"}, {"measurement": "Protection against liver damage (serum ALT, histopathology) in absence of iNOS function/expression", "setting": "[4]; CO 250 ppm, inos−/− mice and wild type mice treated with L-NIL 5 mg/kg i.p. every two hours", "value": "unable to protect against liver damage"}]}]}
